These results are taken from patent US8809618B2, “Transgenic mouse for screening and for studies of the pharmacodynamics and pharmacokinetics of ligands acting on the oestrogen receptor and its intracellular receptors, and method for the preparation thereof” (T.O.P. (Transgenic Operative Products) S.R.L., priority 2000, dated 2014).

Entries after “also recorded” stand apart in the source; their conditions may differ.

The subject of test [1] is ER reporter in primary bone marrow cells. Briefly: Luciferase expression in primary bone marrow cells from transgenic mice. The format is cell-based, mouse. As to conditions: 16 hours; for luciferase accumulation in the presence of 1 nM E2: 100 nM ligand plus 1 nM E2; for luciferase accumulation, ligand alone: E2 0.01-10 nM, ICI and T 100 nM, Prog and Dex 10 nM.
Experimental: Two millions of bone marrow cells were suspended in phenol red-free RPMI 1640 with 10% stripped serum. […] Bars represent the average.+−.s.e.m. of 5 individual experiments each done in triplicate. *(P<0.01 as compared to the control), **(P<0.005 as compared to the control), ° (P<0.05 as compared to the T-treated); P were calculated with ANOVA followed by Scheffe test. […] As a control, we also tested progesterone and dexamethasone (10 nM).
The subject of test [2] is oestrogen receptors. Briefly: Agonistic/antagonistic action of ER ligands: luciferase activity in tissues of line 2 ERE-luciferase transgenic mice. The conditions noted are these: line 2 mice; for effect on E2-dependent activation of luciferase expression in vivo: 250 μg/kg one hour before 50 μg/kg E2. The format is in vivo, mouse. The procedure:
To verify the expression of the transgene in the different tissues and its inducibility by oestrogens, 4 independent experiments were carried out on 8 female individuals of each line (4 heterozygotic and 4 homozygotic). For each experiment, two female individuals were ovariectomised. With the aim of reducing the oestrogens present in the bloodstream of the ovariectomised animals below the detection limit, there was a wait of two weeks before the induction experiment was carried out; the individuals were then subjected to subcutaneous (s.c.) injection of mineral oil with or without 50 μg/kg of dissolved 17-β oestradiol; 16 hours after the treatment, the individuals were sacrificed and the following tissues were dissected out of them: uterus, liver, spleen, lung, heart, kidney, hypothalamus and brain. The protein extracts were obtained by disintegration of the tissue with a homogenizer in the presence of a phosphate lysis buffer consisting of 0.1 M KH2PO4, 0.1 M K2HPO4, 1 mM DTT, 4 mM EGTA and 4 mM EDTA at pH 7.8. The suspension was frozen and thawed three times, and centrifuged for 30 minutes at 13,000 g; the supernatant was collected and equal quantities of protein, measured by the colorimetric method of Bradford, were subjected to enzymatic testing to reveal the activity of the enzyme luciferase. The method for detection of the activity of the reporter was carried out with a kit by the procedure recommended by the producer (Sigma), mixing ca. 20 μg of protein extract with the luciferin substrate in the presence of 0.5 mM ATP and 30 mM DTT and measuring the […] emitted using a luminometer (Lumat BL 9500, Berthold). With reference to FIGS. 5 to 7 of the attached drawings, individuals were subcutaneously injected (s.c.) with 50 μg/Kg 17β-estradiol (E2) or with vehicle (vegetable oil) and sacrificed at 24 hours. Luciferase enzymatic activity was evaluated and plotted in the graph. The arbitrary units are obtained considering the luciferase activity in the uterus of control individuals=100.
By subcutaneous injection of the substance in the presence or in the absence of 17-β oestradiol it is in fact possible to compare the distribution and the intensity of expression of the luciferase gene in the various tissues and to compare it with the control or with the injection of 17-β oestradiol alone. The effect of in vivo administration of two known ER antagonists was investigated in line 2 of transgenic mice. […] Luciferase is expressed as fold induction obtained as the ratio between luciferase activity in ligands treated/control mice.

Test [3] deals with oestrogen receptors. Briefly: Xenooestrogen activity: luciferase activity in liver and brain of transgenic mice injected s.c. with DDT. The test is classed as in vivo, mouse. As to conditions: s.c. 5000 μg/ml. The procedure: (§1) To verify the expression of the transgene in the different tissues and its inducibility by oestrogens, 4 independent experiments were carried out on 8 female individuals of each line (4 heterozygotic and 4 homozygotic). For each experiment, two female individuals were ovariectomised. […] The suspension was frozen and thawed three times, and centrifuged for 30 minutes at 13,000 g; the supernatant was collected and equal quantities of protein, measured by the colorimetric method of Bradford, were subjected to enzymatic testing to reveal the activity of the enzyme luciferase. The method for detection of the activity of the reporter was carried out with a kit by the procedure recommended by the producer (Sigma), mixing ca. 20 μg of protein extract with the luciferin substrate in the presence of 0.5 mM ATP and 30 mM DTT and measuring the […] emitted using a luminometer (Lumat BL 9500, Berthold). […] Luciferase enzymatic activity was evaluated and plotted in the graph. […]

Test [4] relates to oestrogen receptors. The experiment in a line: Tissue distribution of E2-dependent luciferase induction in ovariectomised female transgenic mice. The conditions noted are these: 26 tissues, ovariectomised 2-month old females, s.c., 16 hours. The format is in vivo, mouse. The procedure:
as §1
The pharmacodynamics of any compound acting via intracellular receptors can also be correctly predicted by the transgenic model of the invention. As an illustrative example, […] luciferase activity was measured in 26 different tissues from 2-month old female mice which had been ovariectomised 2 weeks prior to the experiment. […]

The subject of the next test is oestrogen receptor. Briefly: Time course of luciferase activity in bone and liver of transgenic mice after E2. The format is in vivo, mouse. The conditions noted are these: s.c. 50 μg/kg, sacrificed after 3, 6 or 16 hours.

On to 4-hydroxytamoxifen, for which, in test [1], the “luciferase accumulation in the presence of 1 nM E2” value is “higher luciferase accumulation, yet the level reached was still lower than with E2 alone” and the “luciferase accumulation, ligand alone” value is listed as “significant increase in luciferase levels even though lower than E2 at the same concentration”. For the same molecule, the “agonist activity on luciferase expression in vivo” value in the test on oestrogen receptors [2] (250 μg/Kg alone, liver and brain) is given as “partial agonist activity”. In addition, in the test on oestrogen receptors [2], the “effect on E2-dependent activation of luciferase expression in vivo” value (“effect on E2-dependent activation” below) was “blockade”. The “effect on E2-dependent activation” value with oestrogen receptors [2] (listed as tamoxifen) is “inhibits the E2-dependent activation of luciferase expression”.

On to `Clc1ccc(C(c2ccc(Cl)cc2)C(Cl)(Cl)Cl)cc1` [DDT], for which the “persistence of luciferase induction” value in the test on oestrogen receptors [3] came out at 72 h. Moreover, in the test with oestrogen receptors [3] (sacrificed at 3-72 hours, vs vehicle), the “time of maximal induction of luciferase activity” value came to 24 h.

For `C[C@]12CC[C@@H]3c4ccc(O)cc4CC[C@H]3[C@@H]1CC[C@@H]2O` [E2, 17β-estradiol], in the test on oestrogen receptors [4], the “luciferase enzyme content in tissues compared to controls” value is reported as “induced an increase in the enzyme content compared to controls in oestrogen target organs”. Moreover, the “time of maximal luciferase accumulation” value in the test on oestrogen receptor came to 6 h. Further, in test [1], the “luciferase accumulation, ligand alone” value is given as “dose-dependent increase”.

For `C[C@]12CC[C@@H]3c4ccc(O)cc4C[C@@H](CCCCCCCCC[S+]([O-])CCCC(F)(F)C(F)(F)F)[C@H]3[C@@H]1CC[C@@H]2O` (some centres unmarked) [ICI 182,780], in test [1], the “luciferase accumulation in the presence of 1 nM E2” value was “blocked” and the “luciferase accumulation, ligand alone” value is “did not sort [sic] any effect”. Also, the “effect on E2-dependent activation” value with oestrogen receptors [2] was “blockade; also recorded: inhibits the E2-dependent activation of luciferase expression”.

`CC(=O)[C@H]1CC[C@H]2[C@@H]3CCC4=CC(=O)CC[C@]4(C)[C@H]3CC[C@]12C` [progesterone]: the “luciferase accumulation, ligand alone” value in test [1] was “did not have any effect”.
